We go through two molecules from US7015250B2, “Methods and pharmaceutical preparations for normalizing blood pressure with (-)-hydroxycitric acid” (Glykon Technologies Group, LLC, priority 2000, dated 2006).

The nature of data set [1]: serum NEFA, insulin and corticosterone in rats on a moderate fat diet given potassium hydroxycitrate for 60 days. The format is in vivo. The following applies: student's T test. An excerpt: Therefore, animal tests were scrutinized to determine if variations in serum levels of non-esterified fatty acids (NEFA), insulin and corticosterone could explain the novel findings. Ten-week old male rats were placed on a moderate fat diet (30% of calories, which is a high-fat diet for rats) for 60 days. These rats were fed water or potassium hydroxycitrate (0.33 mmols/kg) twice daily by gastric intubation, but were otherwise provided with food and water ad libitum. Five animals were used as controls and two different formulas of potassium hydroxycitrate were provided to five animals each. The differences between control (5 data points) and active (10 data points) were then analyzed according to the student's T test. […] Both of these factors could play a role in the clinical findings of lowered blood pressure in hypertensive individuals. Elevated insulin levels are known to be associated with hypertension. Glucocorticoids, similarly, are associated with hypertension through a variety of mechanisms, including sodium retention.

For data set [2] the following is noted: treated rats, diets mostly of glucose (e.g. 70% glucose); Sullivan and Triscari 1976; cited from earlier work.
The nature of data set [3]: pilot open clinical weight loss trial with a pouch delivery form of potassium (−)-hydroxycitrate in extremely obese patients (blood pressure, weight, tolerability). The format is in vivo, human. The arrangement: Starting Blood Pressure: unit not given here. An excerpt:
Blood pressure data was acquired from a multi-week pilot open clinical weight loss trial with extremely obese patients which was undertaken to gauge the effects of a pouch delivery form of a potassium salt of (−)-hydroxycitrate under the normal circumstances faced in clinical practice with this patient population. Sixteen patients were enrolled, three of whom were diabetics on medications or insulin. Several others were suspected of suffering from insulin resistance. The patients ingested 3–4 grams of HCA per day in two divided doses. Aside from being informed that they must eat a carbohydrate-containing meal within one hour of taking the HCA and that they should avoid eating late in the day, they were not instructed to follow any special diet or exercise plan outside their normal habits and no caloric restriction was imposed. This particular form of potassium (−)-hydroxycitrate delivery typically was mixed into water or juice and consumed at mid-morning and mid-afternoon. The delivery was a water-soluble immediate release form. […] A number of patients continued on the program for 6 weeks. […] Several other patients experienced good appetite suppression, yet also complained of episodic tiredness at the beginning of the program, a sign of low blood sugar. Two patients subsequently were placed on phentermine. […] The average weight loss over the 3 week period for these 14 patients was approximately 3.1 pounds per person per week. The clinical decision was made that potassium (−)-hydroxycitrate in an immediate release format can exercise a strong hypoglycemic effect in diabetics and that it appears to influence blood sugar levels in protodiabetics, as well. At therapeutically effective dosages, HCA probably should be used with diabetic populations only under a physician's care.
Along with the hypoglycemic effect of the potassium hydroxycitrate, a quite surprising finding was that blood pressure levels in eight patients began to normalize rapidly with this treatment. Elevated blood pressure is common with obese and insulin-resistant patients, and therefore it was unremarkable that in this patient population (ages ranging roughly 30 to 60) that almost one half suffered from hypertension. Following are the readings for the eight hypertensive patients. Many of these patients had been advised to lower salt intake and to increase potassium and magnesium intake. […]

Values joined by “and” are separate entries in the source; they are usually repeats but may differ in a detail not shown here. Identical values can stand only once.

Consider `O=C(O)CC(O)(C(=O)O)C(O)C(=O)O` (single isomer, unassigned; (-)) [HCA, (−)-Hydroxycitric acid], for which the “corticosterone levels, HCA groups versus control” value in data set [1] (pooled active (10) vs control (5), one-tailed P 0.0013, two-tailed P 0.0026) is given as “very significantly lower”. For the same molecule, in data set [1] (pooled active (10) vs control (5), one-tailed P 0.0306, two-tailed P 0.0612), the “insulin levels, HCA groups versus control” value is reported as “significantly lower”. The “NEFA, HCA groups versus control” value in data set [1] (pooled active (10 data points) vs control (5)) was “no significant difference”. Further, in data set [2], the “plasma levels of glucose, insulin, or free fatty acids relative to controls” value is “no significant differences”.
`O=C([O-])CC(O)(C(=O)[O-])C(O)C(=O)[O-].[K+].[K+].[K+]` (stereo not drawn) [potassium hydroxycitrate, potassium (−)-hydroxycitrate]: in data set [3] (as little as 3 grams of HCA per day in divided doses (5 grams of the salt), manifests over one to several weeks), the hypotensive effect entry is “significant hypotensive effect”. Moreover, the “Starting Blood Pressure” value in data set [3] (baseline reading of each of the eight hypertensive, extremely obese patients before treatment) is 150/88 and 178/100 and 130/98 and 150/98 and 140/78 and 180/88 and 120/80 and 170/100. Besides, the “weight loss of one patient” value in data set [3] (one patient who followed the program for 10 weeks, 3–4 grams of HCA per day) came to 32 pounds. In data set [3] (over the 3 week period, 14 patients, 3–4 grams of HCA per day, no caloric restriction), the average weight loss result was “approximately 3.1 pounds per person per week”. Besides, the tolerability entry in data set [3] (pre-commercial pouch preparation, patients complained of inconvenience and poor taste) was “no other issues of tolerability”. Further, in data set [3] (two of the diagnosed diabetics on medications or insulin, 3–4 grams of HCA per day, immediate release), the hypoglycemic reactions result is “severe hypoglycemic reactions”.
